Assay results: patent US5484804A, “Perhydroisoindole derivatives as antagonists of substance P” (Rhone-Poulenc Rorer S.A., priority 1992, dated 1996)

Columns and labels:
Assay type in all cases: in vivo
[1] = tested on: hypotension induced by substance P; assay: antagonism of hypotension induced by substance P; conditions: Cavia porcellus, iv; guinea-pig, hypotension induced by i.v. injection of 250 ng/kg of substance P; read-out: ED50, dose which reduces by 50% the hypotension
Procedure: Injection of substance P in animals causes hypotension. The products studied by the technique of C. A. Maggi et al., J. Auton. […] The ED50, the dose which reduces by 50% the hypotension induced by an i.v. injection of 250 ng/kg of substance P, is determined.

formalin pain = formalin pain test; conditions: Cavia porcellus, po; guinea-pig, administered perorally 1 hour before the test
[2] = tested on: bronchospasm induced by [Pro^9 ] substance P; assay: inhibition of bronchospasm induced by [Pro9] substance P; conditions: Cavia porcellus, iv; guinea-pig, bronchospasm induced by 3 μg/kg i.v. of [Pro9] substance P; read-out: ED50, dose which reduces by 50% the bronchospasm
Text: Injection of substance P causes a bronchospasm in the animal. The bronchoconstriction induced in vivo in the guinea-pig by injection of substance P or a selective agonist of substance P:. [Pro^9 ] substance P, is studied by the technique of H. Konzett and R. Rosseler, Archiv. Exp. Path. Pharmak., 195, 71-74 (1940). This bronchoconstriction is inhibited by injection of a product according to the invention, which is evidence of an antiasthmatic activity. The ED50, the dose which reduces by 50% the bronchospasm induced by 3 μg/kg i.v. of [Pro^9 ] substance P, is determined. In this technique, the ED50 of the product of Example 1 is 0.7 mg/kg i.v.

[3] = tested on: increase in capillary permeability caused by septide (agonist of substance P); assay: inhibition of the increase in capillary permeability caused by septide; conditions: Cavia porcellus, guinea-pig
Text: The study of some isoindole derivatives of the general formula (I) by the technique of A. Saria et al., Arch.

Question: How did the ED50 [1] turn out when COc1ccccc1[C@H](C)C(=O)N1C[C@@H]2[C@H](C1)C(c1ccccc1)(c1ccccc1)CC[C@@]2(O)c1ccccc1OC [Example 1, (3aS,4S,7aS)-7,7-diphenyl-4-(2-methoxyphenyl)-2-[(S)-2-(2methoxyphenyl)propionyl]perhydroisoindol-4-ol] was run?
Answer: Its ED50 is 0.15 mg/kg.

Question: And the ED50 (formalin pain)?
Answer: The ED50 was 11 mg/kg.

Question: And the ED50 [2]?
Answer: The ED50 was 0.7 mg/kg.

Question: And the ED50 ([3]; iv)?
Answer: Its ED50 is 0.04 mg/kg.

Question: What about the ED50 ([3]; po) of the same molecule?
Answer: Its ED50 is 3.5 mg/kg.
